Data: the kinase profiling compilation of Christmann-Franck et al. (2016)

What follows are molecules tested against AURKA (human) (UniProt O14965) (assay: radiometric filter-binding kinase assay). Conditions: compound 100.0 µM; ATP 5 µM.
AURKA (human), sequence (O14965 whole entry, looked up): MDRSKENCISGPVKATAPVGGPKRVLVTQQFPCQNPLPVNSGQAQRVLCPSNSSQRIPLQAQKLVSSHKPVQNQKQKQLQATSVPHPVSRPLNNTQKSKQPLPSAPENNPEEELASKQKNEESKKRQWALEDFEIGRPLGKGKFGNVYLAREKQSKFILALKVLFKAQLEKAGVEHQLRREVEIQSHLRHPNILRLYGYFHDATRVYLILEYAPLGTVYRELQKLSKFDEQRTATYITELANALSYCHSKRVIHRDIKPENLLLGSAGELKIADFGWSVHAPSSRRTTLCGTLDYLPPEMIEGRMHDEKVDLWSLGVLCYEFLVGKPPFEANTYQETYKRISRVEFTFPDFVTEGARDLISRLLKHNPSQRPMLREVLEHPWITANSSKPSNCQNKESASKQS
With `O=C(Nc1cnc2[nH]ccn2c1=O)c1ccccc1` the inhibition was 6%.
`CC(C)(C)Nc1c(COCc2ccccc2)nc2[nH]cnn12` gave an inhibition of 5%.
With `CC(=O)Nc1nc2cnc(-c3ccccc3)cn2n1` the inhibition was 13%.
Work on `CC1CN(c2nc3ccccn3c(=O)c2N)CC(C)O1` (configuration not stated) yielded an inhibition of 2%.
Molecule `O=C(c1cccc(-c2cc3c(=O)[nH]cnc3s2)c1)N1CCOCC1` has an inhibition of 21%.

These molecules were tested against AURKB (human) (UniProt Q96GD4) (assay: radiometric filter-binding kinase assay). Conditions: compound 100.0 µM; ATP 20 µM.
AURKB (human), sequence (Q96GD4 whole entry, looked up): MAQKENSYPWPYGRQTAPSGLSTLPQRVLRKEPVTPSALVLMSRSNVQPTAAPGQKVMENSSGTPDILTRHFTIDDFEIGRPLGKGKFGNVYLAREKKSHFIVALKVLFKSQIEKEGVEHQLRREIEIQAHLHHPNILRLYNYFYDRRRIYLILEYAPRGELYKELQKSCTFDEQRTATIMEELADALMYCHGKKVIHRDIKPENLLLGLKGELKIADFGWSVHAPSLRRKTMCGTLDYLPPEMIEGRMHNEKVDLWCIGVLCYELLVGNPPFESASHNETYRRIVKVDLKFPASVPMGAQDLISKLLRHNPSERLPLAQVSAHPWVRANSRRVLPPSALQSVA
`O=C(Nc1cnc2[nH]ccn2c1=O)c1ccccc1` was tested, and the inhibition was 0%.
`CC(C)(C)Nc1c(COCc2ccccc2)nc2[nH]cnn12` gave an inhibition of 12%.
Molecule `CC(=O)Nc1nc2cnc(-c3ccccc3)cn2n1` has an inhibition of 61%.
`CC1CN(c2nc3ccccn3c(=O)c2N)CC(C)O1` (configuration not stated) gave an inhibition of 32%.
In the case of `O=C(c1cccc(-c2cc3c(=O)[nH]cnc3s2)c1)N1CCOCC1`, the inhibition is reported as 6%.

The molecules below were run against BRSK1 (human) (UniProt Q8TDC3) (assay: radiometric filter-binding kinase assay). Conditions: compound 100.0 µM; ATP 20 µM.
For `O=C(Nc1cnc2[nH]ccn2c1=O)c1ccccc1`, the inhibition was 14%.
In the case of `CC(C)(C)Nc1c(COCc2ccccc2)nc2[nH]cnn12`, the inhibition is reported as 0%.
Molecule `CC(=O)Nc1nc2cnc(-c3ccccc3)cn2n1` has an inhibition of 23%.
Molecule `CC1CN(c2nc3ccccn3c(=O)c2N)CC(C)O1` (configuration not stated) has an inhibition of 12%.
With `O=C(c1cccc(-c2cc3c(=O)[nH]cnc3s2)c1)N1CCOCC1` the inhibition was 38%.

What follows are molecules tested against CDK2 CCNA2 (human) (UniProt P20248+P24941) (assay: radiometric filter-binding kinase assay). Conditions: compound 100.0 µM; ATP 20 µM.
`O=C(Nc1cnc2[nH]ccn2c1=O)c1ccccc1` was tested, and the inhibition was 0%.
`CC(C)(C)Nc1c(COCc2ccccc2)nc2[nH]cnn12` gave an inhibition of 14%.
`CC(=O)Nc1nc2cnc(-c3ccccc3)cn2n1` was tested, and the inhibition was 34%.
`CC1CN(c2nc3ccccn3c(=O)c2N)CC(C)O1` (configuration not stated) showed an inhibition of 8%.
Molecule `O=C(c1cccc(-c2cc3c(=O)[nH]cnc3s2)c1)N1CCOCC1` has an inhibition of 10%.

The molecules below were run against CSK (human) (UniProt P41240) (assay: radiometric filter-binding kinase assay). Conditions: compound 100.0 µM; ATP 20 µM.
CSK (human), sequence (P41240 whole entry, looked up): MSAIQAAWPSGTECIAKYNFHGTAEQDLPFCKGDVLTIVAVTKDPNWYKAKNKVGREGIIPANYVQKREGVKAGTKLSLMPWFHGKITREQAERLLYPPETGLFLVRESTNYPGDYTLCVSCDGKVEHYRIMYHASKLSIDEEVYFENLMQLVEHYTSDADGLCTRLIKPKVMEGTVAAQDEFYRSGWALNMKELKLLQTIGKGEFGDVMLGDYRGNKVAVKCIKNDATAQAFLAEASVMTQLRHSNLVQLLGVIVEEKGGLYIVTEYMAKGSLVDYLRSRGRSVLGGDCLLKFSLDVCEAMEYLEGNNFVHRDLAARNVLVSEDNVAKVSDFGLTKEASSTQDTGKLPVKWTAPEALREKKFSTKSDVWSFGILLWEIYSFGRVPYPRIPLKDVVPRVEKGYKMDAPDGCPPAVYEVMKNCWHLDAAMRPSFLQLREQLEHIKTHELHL
In the case of `O=C(Nc1cnc2[nH]ccn2c1=O)c1ccccc1`, the inhibition is reported as 23%.
For `CC(C)(C)Nc1c(COCc2ccccc2)nc2[nH]cnn12`, the inhibition was 0%.
Work on `CC(=O)Nc1nc2cnc(-c3ccccc3)cn2n1` yielded an inhibition of 29%.
`CC1CN(c2nc3ccccn3c(=O)c2N)CC(C)O1` (configuration not stated) showed an inhibition of 0%.
In the case of `O=C(c1cccc(-c2cc3c(=O)[nH]cnc3s2)c1)N1CCOCC1`, the inhibition is reported as 10%.

What follows are molecules tested against EEF2K (human) (UniProt O00418) (assay: radiometric filter-binding kinase assay). Conditions: compound 100.0 µM; ATP 5 µM.
With `O=C(Nc1cnc2[nH]ccn2c1=O)c1ccccc1` the inhibition was 11%.
Molecule `CC(C)(C)Nc1c(COCc2ccccc2)nc2[nH]cnn12` has an inhibition of 0%.
`CC(=O)Nc1nc2cnc(-c3ccccc3)cn2n1` gave an inhibition of 13%.
With `CC1CN(c2nc3ccccn3c(=O)c2N)CC(C)O1` (configuration not stated) the inhibition was 35%.
With `O=C(c1cccc(-c2cc3c(=O)[nH]cnc3s2)c1)N1CCOCC1` the inhibition was 39%.

These molecules were tested against EPHB2 (human) (UniProt P29323) (assay: radiometric filter-binding kinase assay). Conditions: compound 100.0 µM; ATP 20 µM.
For `O=C(Nc1cnc2[nH]ccn2c1=O)c1ccccc1`, the inhibition was 14%.
`CC(C)(C)Nc1c(COCc2ccccc2)nc2[nH]cnn12` showed an inhibition of 1%.
In the case of `CC(=O)Nc1nc2cnc(-c3ccccc3)cn2n1`, the inhibition is reported as 4%.
Molecule `CC1CN(c2nc3ccccn3c(=O)c2N)CC(C)O1` (configuration not stated) has an inhibition of 20%.
`O=C(c1cccc(-c2cc3c(=O)[nH]cnc3s2)c1)N1CCOCC1` was tested, and the inhibition was 27%.

The molecules below were run against GSK3B (human) (UniProt P49841) (assay: radiometric filter-binding kinase assay). Conditions: compound 100.0 µM; ATP 5 µM.
GSK3B (human), sequence (P49841 whole entry, looked up): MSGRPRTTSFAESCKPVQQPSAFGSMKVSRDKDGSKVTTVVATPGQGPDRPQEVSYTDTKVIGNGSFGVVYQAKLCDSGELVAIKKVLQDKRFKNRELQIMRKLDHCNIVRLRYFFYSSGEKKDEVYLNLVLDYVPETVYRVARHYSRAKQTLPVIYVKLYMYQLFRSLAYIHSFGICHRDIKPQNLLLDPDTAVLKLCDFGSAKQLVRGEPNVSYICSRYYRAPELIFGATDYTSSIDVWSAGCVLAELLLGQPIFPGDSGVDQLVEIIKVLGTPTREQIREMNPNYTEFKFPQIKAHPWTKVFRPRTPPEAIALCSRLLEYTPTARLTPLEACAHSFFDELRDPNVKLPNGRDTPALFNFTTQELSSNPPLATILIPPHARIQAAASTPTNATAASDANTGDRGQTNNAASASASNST
For `O=C(Nc1cnc2[nH]ccn2c1=O)c1ccccc1`, the inhibition was 9%.
Work on `CC(C)(C)Nc1c(COCc2ccccc2)nc2[nH]cnn12` yielded an inhibition of 38%.
Molecule `CC(=O)Nc1nc2cnc(-c3ccccc3)cn2n1` has an inhibition of 73%.
Molecule `CC1CN(c2nc3ccccn3c(=O)c2N)CC(C)O1` (configuration not stated) has an inhibition of 64%.
For `O=C(c1cccc(-c2cc3c(=O)[nH]cnc3s2)c1)N1CCOCC1`, the inhibition was 70%.

What follows are molecules tested against HIPK1 (human) (UniProt Q86Z02) (assay: radiometric filter-binding kinase assay). Conditions: compound 100.0 µM; ATP 20 µM.
In the case of `O=C(Nc1cnc2[nH]ccn2c1=O)c1ccccc1`, the inhibition is reported as 24%.
In the case of `CC(C)(C)Nc1c(COCc2ccccc2)nc2[nH]cnn12`, the inhibition is reported as 0%.
`CC(=O)Nc1nc2cnc(-c3ccccc3)cn2n1` was tested, and the inhibition was 16%.
Work on `CC1CN(c2nc3ccccn3c(=O)c2N)CC(C)O1` (configuration not stated) yielded an inhibition of 0%.
For `O=C(c1cccc(-c2cc3c(=O)[nH]cnc3s2)c1)N1CCOCC1`, the inhibition was 10%.

These molecules were tested against IKBKE (human) (UniProt Q14164) (assay: radiometric filter-binding kinase assay). Conditions: compound 100.0 µM; ATP 50 µM.
Work on `O=C(Nc1cnc2[nH]ccn2c1=O)c1ccccc1` yielded an inhibition of 3%.
Work on `CC(C)(C)Nc1c(COCc2ccccc2)nc2[nH]cnn12` yielded an inhibition of 0%.
Molecule `CC(=O)Nc1nc2cnc(-c3ccccc3)cn2n1` has an inhibition of 23%.
Molecule `CC1CN(c2nc3ccccn3c(=O)c2N)CC(C)O1` (configuration not stated) has an inhibition of 0%.
`O=C(c1cccc(-c2cc3c(=O)[nH]cnc3s2)c1)N1CCOCC1` showed an inhibition of 36%.

What follows are molecules tested against IRAK4 (human) (UniProt Q9NWZ3) (assay: radiometric filter-binding kinase assay). Conditions: compound 100.0 µM; ATP 20 µM.
IRAK4 (human), sequence (Q9NWZ3 whole entry, looked up): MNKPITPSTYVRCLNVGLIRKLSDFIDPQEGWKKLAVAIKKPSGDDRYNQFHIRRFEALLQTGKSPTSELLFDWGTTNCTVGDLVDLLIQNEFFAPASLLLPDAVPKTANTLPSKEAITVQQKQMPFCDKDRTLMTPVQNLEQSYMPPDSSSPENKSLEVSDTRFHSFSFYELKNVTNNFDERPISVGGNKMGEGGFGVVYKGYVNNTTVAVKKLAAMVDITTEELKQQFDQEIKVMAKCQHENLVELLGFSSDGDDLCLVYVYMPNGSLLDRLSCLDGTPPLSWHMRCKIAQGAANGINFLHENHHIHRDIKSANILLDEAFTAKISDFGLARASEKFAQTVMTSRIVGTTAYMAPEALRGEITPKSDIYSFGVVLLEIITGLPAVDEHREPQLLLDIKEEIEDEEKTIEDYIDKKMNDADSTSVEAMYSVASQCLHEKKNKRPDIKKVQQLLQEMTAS
Work on `O=C(Nc1cnc2[nH]ccn2c1=O)c1ccccc1` yielded an inhibition of 19%.
`CC(C)(C)Nc1c(COCc2ccccc2)nc2[nH]cnn12` was tested, and the inhibition was 0%.
`CC(=O)Nc1nc2cnc(-c3ccccc3)cn2n1` gave an inhibition of 39%.
Molecule `CC1CN(c2nc3ccccn3c(=O)c2N)CC(C)O1` (configuration not stated) has an inhibition of 3%.
In the case of `O=C(c1cccc(-c2cc3c(=O)[nH]cnc3s2)c1)N1CCOCC1`, the inhibition is reported as 28%.

What follows are molecules tested against JAK2 JH1 JH2 (human) (UniProt O60674) (assay: radiometric filter-binding kinase assay). Conditions: compound 100.0 µM; ATP 5 µM.
JAK2 JH1 JH2 (human), sequence (O60674 whole entry, looked up): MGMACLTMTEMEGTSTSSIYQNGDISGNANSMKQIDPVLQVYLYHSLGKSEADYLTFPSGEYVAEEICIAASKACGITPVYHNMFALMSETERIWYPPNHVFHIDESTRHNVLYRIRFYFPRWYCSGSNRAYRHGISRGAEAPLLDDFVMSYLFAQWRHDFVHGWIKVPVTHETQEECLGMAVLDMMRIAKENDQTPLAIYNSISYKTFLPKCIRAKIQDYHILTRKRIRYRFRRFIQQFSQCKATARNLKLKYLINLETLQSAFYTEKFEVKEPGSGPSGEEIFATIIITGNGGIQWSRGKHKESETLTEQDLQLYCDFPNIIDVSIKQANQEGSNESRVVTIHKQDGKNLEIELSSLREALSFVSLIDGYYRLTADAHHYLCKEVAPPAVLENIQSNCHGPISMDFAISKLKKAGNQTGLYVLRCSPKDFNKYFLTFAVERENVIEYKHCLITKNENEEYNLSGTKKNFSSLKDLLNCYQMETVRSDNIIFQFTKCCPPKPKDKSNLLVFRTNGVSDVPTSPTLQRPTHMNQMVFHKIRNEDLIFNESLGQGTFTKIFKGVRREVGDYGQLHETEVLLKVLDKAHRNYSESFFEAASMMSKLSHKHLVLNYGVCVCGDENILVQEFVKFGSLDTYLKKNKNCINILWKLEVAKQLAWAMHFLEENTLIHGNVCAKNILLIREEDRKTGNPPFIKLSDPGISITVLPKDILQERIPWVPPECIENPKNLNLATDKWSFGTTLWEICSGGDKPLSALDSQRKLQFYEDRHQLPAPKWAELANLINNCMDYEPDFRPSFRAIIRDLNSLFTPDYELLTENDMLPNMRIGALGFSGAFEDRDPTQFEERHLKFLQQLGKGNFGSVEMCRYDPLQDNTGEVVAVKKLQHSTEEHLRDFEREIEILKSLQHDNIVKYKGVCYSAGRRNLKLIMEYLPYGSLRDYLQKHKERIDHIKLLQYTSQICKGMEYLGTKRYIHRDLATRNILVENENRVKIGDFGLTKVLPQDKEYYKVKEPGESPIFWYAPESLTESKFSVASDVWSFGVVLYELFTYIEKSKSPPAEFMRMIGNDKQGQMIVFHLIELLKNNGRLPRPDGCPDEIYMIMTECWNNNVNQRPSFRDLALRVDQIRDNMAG
`O=C(Nc1cnc2[nH]ccn2c1=O)c1ccccc1` gave an inhibition of 9%.
`CC(C)(C)Nc1c(COCc2ccccc2)nc2[nH]cnn12` showed an inhibition of 11%.
`CC(=O)Nc1nc2cnc(-c3ccccc3)cn2n1` gave an inhibition of 25%.
`CC1CN(c2nc3ccccn3c(=O)c2N)CC(C)O1` (configuration not stated) showed an inhibition of 35%.
`O=C(c1cccc(-c2cc3c(=O)[nH]cnc3s2)c1)N1CCOCC1` showed an inhibition of 75%.

The molecules below were run against MAP2K6 (human) (UniProt P52564) (assay: radiometric filter-binding kinase assay). Conditions: compound 100.0 µM; ATP 50 µM.
MAP2K6 (human), sequence (P52564 whole entry, looked up): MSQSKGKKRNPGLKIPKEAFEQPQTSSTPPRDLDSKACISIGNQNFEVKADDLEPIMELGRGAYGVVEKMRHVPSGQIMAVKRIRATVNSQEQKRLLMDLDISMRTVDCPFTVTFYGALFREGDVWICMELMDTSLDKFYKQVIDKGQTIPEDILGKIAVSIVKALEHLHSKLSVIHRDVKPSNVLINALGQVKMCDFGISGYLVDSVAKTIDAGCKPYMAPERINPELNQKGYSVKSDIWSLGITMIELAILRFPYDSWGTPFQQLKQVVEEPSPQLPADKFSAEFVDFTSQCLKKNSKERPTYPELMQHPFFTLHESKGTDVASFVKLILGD
Molecule `O=C(Nc1cnc2[nH]ccn2c1=O)c1ccccc1` has an inhibition of 0%.
With `CC(C)(C)Nc1c(COCc2ccccc2)nc2[nH]cnn12` the inhibition was 1%.
With `CC(=O)Nc1nc2cnc(-c3ccccc3)cn2n1` the inhibition was 0%.
In the case of `CC1CN(c2nc3ccccn3c(=O)c2N)CC(C)O1` (configuration not stated), the inhibition is reported as 1%.
Work on `O=C(c1cccc(-c2cc3c(=O)[nH]cnc3s2)c1)N1CCOCC1` yielded an inhibition of 2%.

These molecules were tested against MAP3K5 (human) (UniProt Q99683) (assay: radiometric filter-binding kinase assay). Conditions: compound 100.0 µM; ATP 50 µM.
`O=C(Nc1cnc2[nH]ccn2c1=O)c1ccccc1` gave an inhibition of 0%.
In the case of `CC(C)(C)Nc1c(COCc2ccccc2)nc2[nH]cnn12`, the inhibition is reported as 2%.
`CC(=O)Nc1nc2cnc(-c3ccccc3)cn2n1` gave an inhibition of 25%.
`CC1CN(c2nc3ccccn3c(=O)c2N)CC(C)O1` (configuration not stated) was tested, and the inhibition was 4%.
Work on `O=C(c1cccc(-c2cc3c(=O)[nH]cnc3s2)c1)N1CCOCC1` yielded an inhibition of 54%.

Each molecule was assayed against MAP3K9 (human) (UniProt P80192) (assay: radiometric filter-binding kinase assay). Conditions: compound 100.0 µM; ATP 20 µM.
With `O=C(Nc1cnc2[nH]ccn2c1=O)c1ccccc1` the inhibition was 2%.
For `CC(C)(C)Nc1c(COCc2ccccc2)nc2[nH]cnn12`, the inhibition was 14%.
Work on `CC(=O)Nc1nc2cnc(-c3ccccc3)cn2n1` yielded an inhibition of 43%.
Molecule `CC1CN(c2nc3ccccn3c(=O)c2N)CC(C)O1` (configuration not stated) has an inhibition of 0%.
`O=C(c1cccc(-c2cc3c(=O)[nH]cnc3s2)c1)N1CCOCC1` showed an inhibition of 0%.

The molecules below were run against MAPK1 (human) (UniProt P28482) (assay: radiometric filter-binding kinase assay). Conditions: compound 100.0 µM; ATP 20 µM.
MAPK1 (human), sequence (P28482 whole entry, looked up): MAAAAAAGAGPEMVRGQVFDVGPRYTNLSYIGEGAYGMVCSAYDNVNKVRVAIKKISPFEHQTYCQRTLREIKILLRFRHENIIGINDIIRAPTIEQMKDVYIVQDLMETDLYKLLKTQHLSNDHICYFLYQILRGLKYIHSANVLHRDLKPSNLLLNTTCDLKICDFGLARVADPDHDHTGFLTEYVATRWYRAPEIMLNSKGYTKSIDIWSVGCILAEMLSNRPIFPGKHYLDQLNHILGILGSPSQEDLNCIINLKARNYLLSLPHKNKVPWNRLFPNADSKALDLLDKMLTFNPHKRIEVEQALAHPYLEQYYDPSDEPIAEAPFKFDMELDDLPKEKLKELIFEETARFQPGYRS
Work on `O=C(Nc1cnc2[nH]ccn2c1=O)c1ccccc1` yielded an inhibition of 10%.
Molecule `CC(C)(C)Nc1c(COCc2ccccc2)nc2[nH]cnn12` has an inhibition of 0%.
Work on `CC(=O)Nc1nc2cnc(-c3ccccc3)cn2n1` yielded an inhibition of 7%.
`CC1CN(c2nc3ccccn3c(=O)c2N)CC(C)O1` (configuration not stated) was tested, and the inhibition was 12%.
Molecule `O=C(c1cccc(-c2cc3c(=O)[nH]cnc3s2)c1)N1CCOCC1` has an inhibition of 1%.

Each molecule was assayed against MAPK10 (human) (UniProt P53779) (assay: radiometric filter-binding kinase assay). Conditions: compound 100.0 µM; ATP 20 µM.
MAPK10 (human), sequence (P53779 whole entry, looked up): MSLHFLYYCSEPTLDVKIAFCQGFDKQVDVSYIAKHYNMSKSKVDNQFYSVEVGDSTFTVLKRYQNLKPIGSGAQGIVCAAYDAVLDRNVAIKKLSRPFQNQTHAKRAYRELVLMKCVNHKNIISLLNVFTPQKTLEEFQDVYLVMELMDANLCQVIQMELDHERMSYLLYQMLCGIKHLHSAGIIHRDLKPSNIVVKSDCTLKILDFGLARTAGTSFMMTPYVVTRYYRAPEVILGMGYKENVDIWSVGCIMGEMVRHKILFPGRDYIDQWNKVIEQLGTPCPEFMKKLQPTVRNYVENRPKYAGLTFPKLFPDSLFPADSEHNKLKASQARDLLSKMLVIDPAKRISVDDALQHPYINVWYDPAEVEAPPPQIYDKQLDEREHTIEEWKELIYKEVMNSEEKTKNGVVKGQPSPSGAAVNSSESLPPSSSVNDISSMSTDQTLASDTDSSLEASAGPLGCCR
For `O=C(Nc1cnc2[nH]ccn2c1=O)c1ccccc1`, the inhibition was 0%.
For `CC(C)(C)Nc1c(COCc2ccccc2)nc2[nH]cnn12`, the inhibition was 0%.
Molecule `CC(=O)Nc1nc2cnc(-c3ccccc3)cn2n1` has an inhibition of 11%.
Work on `CC1CN(c2nc3ccccn3c(=O)c2N)CC(C)O1` (configuration not stated) yielded an inhibition of 9%.
In the case of `O=C(c1cccc(-c2cc3c(=O)[nH]cnc3s2)c1)N1CCOCC1`, the inhibition is reported as 7%.

These molecules were tested against MAPK11 (human) (UniProt Q15759) (assay: radiometric filter-binding kinase assay). Conditions: compound 100.0 µM; ATP 20 µM.
MAPK11 (human), sequence (Q15759 whole entry, looked up): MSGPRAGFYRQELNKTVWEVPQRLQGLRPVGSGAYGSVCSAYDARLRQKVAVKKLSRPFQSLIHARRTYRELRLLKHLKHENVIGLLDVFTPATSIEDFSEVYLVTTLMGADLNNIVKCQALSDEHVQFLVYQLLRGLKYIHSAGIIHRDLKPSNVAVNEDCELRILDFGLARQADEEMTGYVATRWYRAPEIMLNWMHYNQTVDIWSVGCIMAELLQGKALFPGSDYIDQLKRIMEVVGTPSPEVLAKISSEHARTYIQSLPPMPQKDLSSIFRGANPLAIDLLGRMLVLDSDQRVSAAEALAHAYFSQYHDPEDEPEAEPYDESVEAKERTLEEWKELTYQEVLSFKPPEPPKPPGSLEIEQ
`O=C(Nc1cnc2[nH]ccn2c1=O)c1ccccc1` was tested, and the inhibition was 23%.
With `CC(C)(C)Nc1c(COCc2ccccc2)nc2[nH]cnn12` the inhibition was 3%.
Work on `CC(=O)Nc1nc2cnc(-c3ccccc3)cn2n1` yielded an inhibition of 22%.
`CC1CN(c2nc3ccccn3c(=O)c2N)CC(C)O1` (configuration not stated) showed an inhibition of 0%.
`O=C(c1cccc(-c2cc3c(=O)[nH]cnc3s2)c1)N1CCOCC1` gave an inhibition of 15%.

Each molecule was assayed against MAPK15 (human) (UniProt Q8TD08) (assay: radiometric filter-binding kinase assay). Conditions: compound 100.0 µM; ATP 5 µM.
`O=C(Nc1cnc2[nH]ccn2c1=O)c1ccccc1` was tested, and the inhibition was 7%.
In the case of `CC(C)(C)Nc1c(COCc2ccccc2)nc2[nH]cnn12`, the inhibition is reported as 1%.
For `CC(=O)Nc1nc2cnc(-c3ccccc3)cn2n1`, the inhibition was 88%.
With `CC1CN(c2nc3ccccn3c(=O)c2N)CC(C)O1` (configuration not stated) the inhibition was 0%.
Molecule `O=C(c1cccc(-c2cc3c(=O)[nH]cnc3s2)c1)N1CCOCC1` has an inhibition of 72%.

Each molecule was assayed against MAPK8 (human) (UniProt P45983) (assay: radiometric filter-binding kinase assay). Conditions: compound 100.0 µM; ATP 20 µM.
In the case of `O=C(Nc1cnc2[nH]ccn2c1=O)c1ccccc1`, the inhibition is reported as 0%.
`CC(C)(C)Nc1c(COCc2ccccc2)nc2[nH]cnn12` was tested, and the inhibition was 2%.
